Test results taken from patent US7863428B2, “Fluorogenic enzyme substrates and methods of preparation” (Tibotec BVBA, priority 2002, dated 2011).

Columns and labels:
[1] = tested on: β-D-glucuronidase from Helix Pommatia type HP-2; assay: Quick test for enzyme recognition of GUS substrates; format: biochemical
Experimental: Dibutyl GUS substrate (compound 27) was tested. First a solution of 2 mg of product (compound 27) in 2 ml pH 8 buffer solution (Merck Titrisol 9888) was made. 1 ml of this solution was kept aside, to the other 1 ml solution 5 μl (500 UNITS) β-D-glucuronidase from Helix Pommatia type HP-2 (Sigma G7017) was added. […] The plate was developed using isooctane/acetone 60:40.

[2] = tested on: GUS transfected 293T cells; assay: Enzymatic test in mammalian cells electroporated with pLNCGUS; format: cell-based; details: 10 μg/ml
Experimental: FIG. 3. Fluorescent (=GUS transfected) and non-fluorescent 293T cells with the presence of compound 27.
Cells were electroporated in the presence of 10 μg pLNCGUS and after 24 hours, compound 27 (10 mM stock in DMSO) was added to a final concentration of 10 μg/ml. Less than 5% of the cells had taken up the pLNCGUS plasmid.

[3] = tested on: GUS reporter enzyme in hair-root cells of a transgenic tobacco plant; assay: Testing substrate in vivo, confocal microscopy of hair-root cells; format: cell-based; details: cells not permeabilized
From the text: FIG. 1. Testing substrate (compound 27) in vivo.

| fluorescent spot on TLC plate after incubation with GUS enzyme (conversion of non-fluorescent substrate into fluorescent product) ([1]; 2 mg in 2 ml pH 8 buffer, 500 UNITS enzyme per 1 ml, 15 minutes shaking at room temperature) | Structure (SMILES) | reaction in GUS substrate test ([1]; after 30 minutes) | fluorescence of cells in the presence of substrate ([2]; 293T cells electroporated with 10 μg pLNCGUS, substrate added after 24 hours) | fluorescence of cells in the presence of substrate ([2]; cells electroporated in the absence of pLNCGUS) | detection of GUS reporter enzyme in the cell nucleus [3] |
| --- | --- | --- | --- | --- | --- |
|  | CCCCCc1ccc(O[C@@H]2O[C@H](C(=O)O)[C@@H](O)[C@H](O)[C@H]2O)c(-c2nc3ccc(CCCCC)cc3c(=O)[nH]2)c1 [compound 24, 1-O-(2-(4-oxo-6-n-pentyl-3H-quinazolinyl)-4-n-pentylphenyl)-β-D-glucuronic acid] | clear positive reaction |  |  |  |
| clear fluorescent spot | CCCCc1ccc(O[C@@H]2OC(C(=O)O)[C@@H](O)[C@@H](O)C2O)c(-c2nc3ccc(CCCC)cc3c(=O)[nH]2)c1 (some centres unmarked) [compound 27] |  | Fluorescent | weak background fluorescence | can be shown with lipophilic GUS substrate (compound 27) without permeabilizing cells |
